Data on two molecules can be found in article PMC3401633 (Bioorganic & medicinal chemistry letters, 2011).

The target in this assay is human isoprenylcysteine carboxyl methyltransferase (hIcmt) (Homo sapiens, UniProt O60725). As to the kind of experiment: vapor diffusion assay. The format is biochemical. The following applies: VDA.
Chain of human isoprenylcysteine carboxyl methyltransferase (hIcmt) (O60725 whole entry, the tested form may be a part): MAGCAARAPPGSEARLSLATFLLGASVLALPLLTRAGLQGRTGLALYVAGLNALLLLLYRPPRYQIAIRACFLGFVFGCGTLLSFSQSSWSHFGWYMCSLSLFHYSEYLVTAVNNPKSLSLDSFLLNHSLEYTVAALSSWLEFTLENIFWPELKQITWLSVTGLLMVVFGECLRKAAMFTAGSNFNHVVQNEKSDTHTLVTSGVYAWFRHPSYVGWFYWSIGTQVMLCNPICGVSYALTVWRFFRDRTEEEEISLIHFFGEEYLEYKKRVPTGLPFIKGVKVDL

As for `CC(C)=CCC/C(C)=C/CC/C(C)=C/CSC[C@H](NS(=O)(=O)c1c(C)c(C)c(C)c(C)c1C)C(=O)O` [Compound 6a], the “hIcmt inhibition in words” value was “poor hIcmt inhibitors”.

For the molecule `COC(=O)[C@H](CSC/C=C(\C)CC/C=C(\C)CCC=C(C)C)NS(=O)(=O)c1cccs1` [Compound 10], the “hIcmt inhibition in words” value is “remarkably poor hIcmt inhibitor”.
